From US20250019385A1, “SPIROCYCLIC ANNULATED 2-AMINO-3-CYANO THIOPHENES AND DERIVATIVES FOR THE TREATMENT OF CANCER” (Boehringer Ingelheim International GmbH, priority 2023, published 2025)

Legend:
[1] = molecular target: KRAS (G12D)::SOS1 protein-protein interaction (Homo sapiens (Human), UniProt P01116, G12D); assay: KRAS::SOS1 AlphaScreen binding assay (KRAS G12D); settings: GDP
How it was run: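 AlphaScreen assay with KRAS G12D (1-169, 6His/avi-tagged, 10 nM), GST-SOS1 564-1049 (5 nM) and GDP (10 μM) in PBS, 0.1% BSA, 0.05% Tween 20; compound up to 100 μM top concentration, eleven fivefold dilutions in duplicate. After 30 min, glutathione acceptor and streptavidin donor beads (10 μg/mL each) were added and signal read after a further 60 min at room temperature in the dark; IC50 from 4-parameter logistic fit.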

NCI-H358 cells = assay: NCI-H358 CTG proliferation assay (120 h) (NSCLC, G12C); format: cell-based
How it was run: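 Cells seeded at 200 per well in RPMI-1640 with 10% FCS, left overnight, then treated with a logarithmic dose series in duplicate for 120 h. Viability measured by CellTiter-Glo luminescence as percent of DMSO controls; IC50 from four-parameter non-linear regression.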

SK-CO-1 cells = assay: SK-CO-1 CTG proliferation assay (120 h) (CRC, G12V); format: cell-based
How it was run: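 Cells seeded overnight in EMEM with 10% FCS, then given logarithmic dose series in duplicate for 120 h at 37° C. CellTiter-Glo luminescence expressed as percent of DMSO controls, with a T0 read at dosing; IC50 by four-parameter non-linear regression.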

LOVO cells = assay: LOVO CTG proliferation assay (120 h) (CRC, G13D); format: cell-based
How it was run: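 Cells seeded at 1000/well in DMEM + 10% FCS, dosed next day with a logarithmic compound series, technical duplicates, for 120 h. Viability by CellTiter-Glo luminescence as percent of DMSO control; IC50 from four-parameter non-linear regression.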

KRAS (G12D)::SOS1 protein-protein interaction, sequence (P01116 other isoform, or with tags, fused parts or gaps G12D): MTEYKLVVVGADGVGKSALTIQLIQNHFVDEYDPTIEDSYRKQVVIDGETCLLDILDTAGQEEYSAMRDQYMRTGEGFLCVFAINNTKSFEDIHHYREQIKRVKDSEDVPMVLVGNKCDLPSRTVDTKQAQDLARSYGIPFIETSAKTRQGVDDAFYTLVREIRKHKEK

C[C@H](Oc1nc(-c2noc3c2CCC[C@@]32CCCc3sc(N)c(C#N)c32)nc2c1CC[C@]21CNCCO1)[C@@H]1C[C@@H](F)CN1C [II-20]
IC50 [1]: 0.001 µM | IC50 (NCI-H358 cells): 0.059 µM | IC50 (SK-CO-1 cells): 0.148 µM | IC50 (LOVO cells): 0.253 µM
